The values that follow come from patent publication US11530317B2, “Deep eutectic solvent compositions” (SABIC GLOBAL TECHNOLOGIES B.V., priority 2017, dated 2022).

Series [1] is described as follows: Quantification of solubility by visual inspection for undissolved material. Type of series: physicochemical. The following applies: for Enhancement factor: solubility in ChCl-urea DES relative to aqueous solution; for Solubility in water: obtained in this work.
Description: Solubility was determined through adding an amount of CB[n] n=6, 7 or 8 or x-CD (where x=α, β or γ) to 1 mL of solvent followed by vortexing and heating the mixture to 80° C. The mixture was inspected visually to determine the presence of undissolved material. The mixture was then cooled to room temperature and the mixture re-examined to determine the presence of any undissolved material.
The nature of series [2]: UV/vis probing of host-guest binding in ChCl-urea DES. The protocol:
Methylviologen dichloride (2.0 mg, […], 1 eq.) was dissolved in ChCl:urea (1 mL) by vortexing and heating to 60° C. The methylviologen radical was formed by addition of a significant excess of reducing agent, sodium hydrosulfite, approx. 20 molar equivalents. To this solution CB[7] (9.0 mg, […], 1 eq.) was added and dissolved through stirring at 60° C. A sample of this solution (0.1 mL) was added to ChCl-urea (1 mL) and measured by UV/vis.
Methylviologen dichloride (2.0 mg, […], 1 eq.) was dissolved in ChCl:urea (1 mL) by vortexing and heating to 60° C. The methylviologen radical was formed by addition of a significant excess of reducing agent, sodium hydrosulfite, approx. 20 molar equivalents. To this solution CB[8] (10.1 mg, […], 1 eq. or 20.2 mg, 15.6 mmol, 2 eq.) was added and dissolved through stirring at 60° C. 0.1 ml of this solution were added to 1 ml of ChCl-urea and measured by UV/vis.
To probe the binding of γ-CD to MV^.+ a high concentration of MV^.+ was required on account of the lower binding constants of CDs compared to CB[n]. A solution of MV^.+ (15 mg/mL) was prepared (as described for CB[7] above) and to this γ-CD (170 mg, 2 equivalents) was added.

A short description of series [3]: Cyclic voltammetry cycling stability of MV in DES in air. The class given is physicochemical. The following applies: DES (ChCl-urea, ChCl-ethylene glycol, ChCl-glycerol), no degassing. As to the method:
Electrochemical measurements were performed in air at 40° C. using a PalmSens EmStat potentiostat. A three-electrode cell was used, equipped with a glassy carbon working electrode (3 mm diameter, BASi), a Ag/AgCl reference electrode (BASi) and a platinum mesh counter electrode (Sigma-Aldrich). The working electrode was cleaned before experiments by mechanically polishing in alumina (Buehler, Micropolish, 1 μm) on a polishing cloth (Buehler, Microcloth).
Cyclic voltammetry (CV) was recorded at 0.1 V s^−1 scan rate and 5.0 mM MV^2+ 2Cl^− concentration. FcMeOH (5 mM) was used as an internal reference. Analyte solutions were prepared by heating the respective DES with MV^2+ 2Cl^− and FcMeOH to 80° C. for 30 min.
None of the solutions were degassed before measurement nor was any attempt made to exclude oxygen or air.

The nature of series [4]: Long term UV/vis measurement of MV^+. in ChCl-urea DES exposed to air. Type of series: physicochemical. The protocol: MV^2+ 2Cl^− (1 mg, 0.0039 mmol) was added to ChCl-urea DES (10 mL) and dissolved by heating to 80° C. for 30 min to give a 0.39 mM solution. The solution was then heated to 130° C. for 2 h during which time it had turned blue. A portion (1.5 mL) of the resulting blue solution was removed, placed in a cuvette and a UV/vis spectrum was recorded.
Spectra were recorded across a 100 h period in an open cuvette.
The solution was not degassed or covered in any way nor was any attempt to keep O2 out made.

Series [5] can be described thus: Purging of MV^+. solutions (DES or water) with air, monitored by UV/vis at 609 nm. Type of series: physicochemical.
Series [6] can be described thus: Photochemical switching of MV in DES (solar light simulator, then air purge). The class given is physicochemical. The following applies: photogenerated radical in DES, purging with air. The protocol:
DES MV^2+ solution (1.5 mL) in a quartz cuvette (1 cm path length, Hellma) was placed in a water bath held at 25° C. and irradiated by a solar light simulator (Newport Oriel, 100 mW cm^−2) equipped with an air mass 1.5 global filter (AM 1.5 G). IR irradiation was filtered with a water filter (10 cm path length). Samples were thermostatted at 25° C.
Stock solutions of MV^2+ in each of the three DES were prepared as follows: MV^2+ 2Cl^− (10 mg, 0.04 mmol) was added each individual DES (ChCl-urea, ChCl-glycerol and ChCl-ethylene glycol) (10 mL) separately and dissolved by heating to 80° C. for 30 min to give a colorless solution.
MV^2+ in DES (1.5 mL) was transferred to a quartz cuvette and placed in a water bath held at 25° C. in front of a solar light simulator. The sample was removed from the simulator and UV/vis spectra recorded at various time intervals to monitor the formation of MV^+..
The resultant blue MV^+. solutions were then purged with air (30 mL min^−1) using a mass flow controller (Brooks). UV/vis spectra were recorded at time intervals during the purging to monitor the disappearance of the MV^+. species.

Series [7] is described as follows: Solubility of methylviologen dichloride in ChCl-urea. The class given is physicochemical. As to conditions: ChCl-urea DES. An excerpt: However, it should be noted that other anions, such as [PF6]^− and I^− were also found to be soluble and may also be used.
The conditions of series [8]: values taken from Sabadini et al.; cited from earlier work.
Setting [9] is: ChCl-urea DES, room temperature.

In brackets after ≈: the same amount, converted by molar mass. Where two headings read alike, the source gives them in different places.

Regarding `O=C1N2CN3C(=O)N4CN5C(=O)N6CN7C(=O)N8CN9C(=O)N%10CN1C1C2N2CN%11C(=O)N(CN%12C(=O)N(CN%13C(=O)N(CN%14C(=O)N(CN1C2=O)C%10C9%14)C8C7%13)C6C5%12)C4C3%11` (stereo not drawn) [CB[5]], the “DES solubility (maximum solubility)” value in series [1] (setting [9]) was “approx. 25 mg/mL”.
Turning to `O=C1N2CN3C(=O)N4CN5C(=O)N6CN7C(=O)N8CN9C(=O)N%10CN%11C(=O)N%12CN1C1C2N2CN%13C(=O)N(CN%14C(=O)N(CN%15C(=O)N(CN%16C(=O)N(CN%17C(=O)N(CN1C2=O)C%12C%11%17)C%10C9%16)C8C7%15)C6C5%14)C4C3%13` (stereo not drawn) [CB[6]], the maximum solubility is 1.0 mg/mL in series [1] (ChCl-TsOH DES); 1.0 mg/mL in series [1] (ChCl-urea DES); less than 0.1 mg/mL in series [1] (H2O); 15.0 mg/mL in series [1] (HCl (3M)); 4.6 mg/mL in series [1] (NaCl (0.1M)); 17.4 mg/mL in series [1] (Phosphate buffer (pH = 7.0)). Further, the “DES solubility (maximum solubility)” value in series [1] (setting [9]) worked out at 1.0 mg/mL. The Enhancement factor in series [1] was found to be 10. Moreover, the Solubility in water in series [1] (water) is less than 0.1 mg/mL.
As to `O=C1N2CN3C(=O)N4CN5C(=O)N6CN7C(=O)N8CN9C(=O)N%10CN%11C(=O)N%12CN%13C(=O)N%14CN1C1C2N2CN%15C(=O)N(CN%16C(=O)N(CN%17C(=O)N(CN%18C(=O)N(CN%19C(=O)N(CN%20C(=O)N(CN1C2=O)C%14C%13%20)C%12C%11%19)C%10C9%18)C8C7%17)C6C5%16)C4C3%15` (stereo not drawn) [CB[7]], the maximum solubility in series [1] (ChCl-TsOH DES) was found to be 18.0 mg/mL; in series [1] (ChCl-urea (1:2), room temperature), 15.0 mg cm^−3; in series [1] (ChCl-urea DES), 17.0 mg/mL; in series [1] (H2O), 4.4 mg/mL; in series [1] (HCl (3M)) it was 100 mg/mL; in series [1] (NaCl (0.1M)), 14.8 mg/mL. The same compound registered a maximum solubility in series [1] (Phosphate buffer (pH = 7.0)) of 19.8 mg/mL. Besides, in series [1] (setting [9]), the “DES solubility (maximum solubility)” value is 17 mg/mL. For the same compound, in series [1], the Enhancement factor came out at 3.9. In series [1] (water), the “maximum solubility in water” value is on record as 4.4 mg cm^−3. The compound also yielded a Solubility in water in series [1] (water) of 4.4 mg/mL (≈ 3.78 mM). The “host-guest binding with MV^.+ by UV/vis” value in series [2] is reported as “binding of MV^.+ is occurring”.
The compound `C[n+]1ccc(-c2cc[n+](C)cc2)cc1.[Cl-].[Cl-]` [MV, N,N′-dimethyl-4,4′-bipyridinium dichloride] returned an electrochemical cycling stability in series [3] of no less than 100 cycles. In addition, in series [4] (ChCl-urea DES, exposed to air, 100 h period), the “change in absorbance at 609 nm” value is recorded as “no change in absorbance at 609 nm”. Further, the “time solutions remain blue” value in series [4] (DES solutions prepared and stored in air) is greater than 6 months. In series [4] (in DES, in air), this compound returned a forecast lifetime greater than 6 months. Besides, the “radical lifetime upon purging with air” value in series [5] (ChCl-ethylene glycol DES (36 cP)) was “shortest radical lifetime”; in series [5] (ChCl-glycerol DES (376 cP)), 900 min; in series [5] (ChCl-urea DES (632 cP)) it was 400 min. The “time to complete quenching” value in series [5] (aqueous solution, purging with air 0.1 mL min^−1) is recorded as “less than 4 min”. In addition, the “persistence of radical species” value in series [5] (in DES, purging with air 30 mL min^−1) lay in the range of 2 to 15 h. The “time to revert to colourless” value in series [6] is on record as no more than 150 s. Further, in series [7], the “solubility in ChCl-urea” value is reported as “soluble”.
`OC[C@H]1O[C@@H]2O[C@H]3[C@H](O)[C@@H](O)[C@@H](O[C@H]4[C@H](O)[C@@H](O)[C@@H](O[C@H]5[C@H](O)[C@@H](O)[C@@H](O[C@H]6[C@H](O)[C@@H](O)[C@@H](O[C@H]7[C@H](O)[C@@H](O)[C@@H](O[C@H]1[C@H](O)[C@H]2O)O[C@@H]7CO)O[C@@H]6CO)O[C@@H]5CO)O[C@@H]4CO)O[C@@H]3CO` [α-CD]: in series [1] (setting [9]), the “DES solubility (maximum solubility)” value was greater than 500 mg/mL. Also, the Enhancement factor in series [1] is given as greater than 3.5. For the same compound, in series [8], the Solubility in water is listed as 129.5 mg/mL (≈ 133 mM).
Consider `OC[C@H]1O[C@@H]2O[C@H]3[C@H](O)[C@@H](O)[C@@H](O[C@H]4[C@H](O)[C@@H](O)[C@@H](O[C@H]5[C@H](O)[C@@H](O)[C@@H](O[C@H]6[C@H](O)[C@@H](O)[C@@H](O[C@H]7[C@H](O)[C@@H](O)[C@@H](O[C@H]8[C@H](O)[C@@H](O)[C@@H](O[C@H]1[C@H](O)[C@H]2O)O[C@@H]8CO)O[C@@H]7CO)O[C@@H]6CO)O[C@@H]5CO)O[C@@H]4CO)O[C@@H]3CO` [β-CD], for which the “CD content of the solution at that solubility” value in series [1] (ChCl-urea DES) was roughly 50 wt %. In series [1] (setting [9]), the “DES solubility (maximum solubility)” value is listed as greater than 1000 mg/mL. Also, the Enhancement factor in series [1] is given as greater than 55.
Take `OC[C@H]1O[C@@H]2O[C@H]3[C@H](O)[C@@H](O)[C@@H](O[C@H]4[C@H](O)[C@@H](O)[C@@H](O[C@H]5[C@H](O)[C@@H](O)[C@@H](O[C@H]6[C@H](O)[C@@H](O)[C@@H](O[C@H]7[C@H](O)[C@@H](O)[C@@H](O[C@H]8[C@H](O)[C@@H](O)[C@@H](O[C@H]9[C@H](O)[C@@H](O)[C@@H](O[C@H]1[C@H](O)[C@H]2O)O[C@@H]9CO)O[C@@H]8CO)O[C@@H]7CO)O[C@@H]6CO)O[C@@H]5CO)O[C@@H]4CO)O[C@@H]3CO` [γ-CD]: the “CD content of the solution at that solubility” value in series [1] (ChCl-urea DES) was roughly 50 wt %. The “DES solubility (maximum solubility)” value in series [1] (setting [9]) is on record as greater than 1000 mg/mL. In addition, in series [1], the Enhancement factor was greater than 4. Besides, the “host-guest binding with MV^.+ by UV/vis” value in series [2] was “binding behaviour similar to the CB[8] system occurred”. Moreover, in series [8], the Solubility in water is reported as 249.2 mg/mL (≈ 192 mM).
As to Cucurbit[8]uril [CB[8]], the maximum solubility in series [1] (ChCl-TsOH DES) is 3.1 mg/mL; in series [1] (ChCl-urea DES), 2.0 mg/mL; in series [1] (H2O), less than 0.2 mg/mL; in series [1] (HCl (3M)), 1.8 mg/mL; in series [1] (NaCl (0.1M)), 0.1 mg/mL; in series [1] (Phosphate buffer (pH = 7.0)) it was 0.3 mg/mL. Also, the “DES solubility (maximum solubility)” value in series [1] (setting [9]) came to 2 mg/mL. Further, the Enhancement factor in series [1] was 10. The same compound gave a Solubility in water in series [1] (water) of less than 0.2 mg/mL. Besides, the “host-guest binding with MV^.+ by UV/vis” value in series [2] is on record as “formation of a 2:1 complex”.
